Data set [1] in a line: Aqueous solubility of the compound in phosphate buffer at pH 6.5 by nephelometry. Type of data set: physicochemical.
Data set [2] is described as follows: Aqueous solubility of the compound in 0.01M HCl at pH 2 by nephelometry. Type of data set: physicochemical.

In brackets after ≈: the same amount, converted by molar mass.

As for `CC(C)c1cnc(NC(=O)CCCOc2ccccc2)s1`, the kinetic solubility in data set [1] and in data set [2] was < 1.2 µM in each case.
For the compound `Cc1cnc(NC(=O)CCCOc2cccc(Cl)c2)s1`, the solubility (kinetic) in data set [1] and in data set [2] was < 1.1 µM in each case.
As for `Cc1cnc(NC(=O)CCCOc2cncc(Cl)c2)s1`, the solubility (kinetic) (in general, solubility judged after dilution from a stock solution rather than from solid) lay in the range of 3.1 to 6.3 µM (≈ 0.967 to 1.96 µg/mL) in data set [1] and 1.6 to 3.1 µM (≈ 0.499 to 0.967 µg/mL) in data set [2].
The matching figures for `N#Cc1cnc(NC(=O)CCCOc2cccc(Cl)c2)s1`: < 1.6 µM and < 1.6 µM.
The matching figures for `Cc1cnc(NC(=O)NCCOc2ccc(Cl)c(C)c2)s1`: < 1.6 µM and 1.6 to 3.1 µM (≈ 0.521 to 1.01 µg/mL).
The matching figures for `N#Cc1cnc(NC(=O)CCCOc2cccc(C(F)(F)F)c2)s1`: < 1.6 µM and < 1.6 µM.
For `O=C(CCCOc1cccc(C(F)(F)F)c1)Nc1ncc(C(F)(F)F)s1`, the kinetic solubility in data set [1] and in data set [2] was < 1.6 µM in each case.
For `Cc1cnc(NC(=O)CCCOc2cccc(Cl)n2)s1`, the solubility (kinetic) in data set [1] and in data set [2] was < 1.2 µM throughout.
As for `N#Cc1cnc(NC(=O)CCCOc2ccccc2)s1`, the kinetic solubility in data set [1] and in data set [2] was 1.1 to 2.2 µM (≈ 0.316 to 0.632 µg/mL) each time.
Turning to `Cc1cnc(NC(=O)CCCOc2cccc(C(F)(F)F)c2)s1`, the kinetic solubility in data set [1] and in data set [2] was < 1.1 µM throughout.
For the compound `O=C(CCCOc1ccccc1)Nc1ncc(Cl)s1`, the kinetic solubility in data set [1] and in data set [2] was < 1.2 µM each time.
For the compound `Cc1cnc(NC(=O)CCCOc2cccc(C#N)c2)s1`, the kinetic solubility in data set [1] and in data set [2] was < 1.1 µM throughout.
`Cc1cnc(NC(=O)CCCOc2ccccc2)s1`: the solubility (kinetic) was < 1.1 µM in data set [1] and 1.1 to 2.3 µM (≈ 0.304 to 0.636 µg/mL) in data set [2].

(Values after ChEMBL document CHEMBL4396867, “Identification of 5-Substituted 2-Acylaminothiazoles That Activate Tat-Mediated Transcription in HIV-1 Latency Models” (J Med Chem, 2019).)
